Legend:
Type in all cases: functional
[1] = system: Homo sapiens; assay: Anti-inflammatory activity in COPD patient assessed as change in forced expiratory volume in 1 second at 90 mg, po bid for 24 weeks (-3.6%)
[2] = system: Homo sapiens; assay: Antirheumatoid arthritic activity in patient assessed as disease activity score at 500 mg, po bid for 8 weeks (reference value: 6.4 +/- 0.73)
[3] = system: Homo sapiens; assay: Antirheumatoid arthritic activity in patient assessed as disease activity score at 500 mg, po bid for 8 weeks in presence of diclofenac sodium (reference value: 6.44 +/- 0.51)
[4] = system: Homo sapiens; assay: Antirheumatoid arthritic activity in patient assessed as visual analogue scale at 500 mg, po bid for 8 weeks (reference value: 68.57 +/- 17.14)
[5] = system: Homo sapiens; assay: Antirheumatoid arthritic activity in patient assessed as visual analogue scale at 500 mg, po bid for 8 weeks in presence of diclofenac sodium (reference value: 77.25 +/- 9.65)
[6] = system: Homo sapiens; assay: Anti-inflammatory activity in COPD patient assessed as change in BMI at 90 mg, po bid for 24 weeks (reference value: -0.7%)
[7] = system: Homo sapiens; assay: Anti-inflammatory activity in COPD patient assessed as change in SBP at 90 mg, po bid for 24 weeks (reference value: 1.4%)
[8] = system: Homo sapiens; assay: Anti-inflammatory activity in COPD patient assessed as change in DBP at 90 mg, po bid for 24 weeks (reference value: 2.9%)
[9] = system: Homo sapiens; assay: Anti-inflammatory activity in COPD patient assessed as change in HbA1c level at 90 mg, po bid for 24 weeks relative to placebo treated control
[10] = system: Homo sapiens; assay: Anti-inflammatory activity in COPD patient assessed as change in blood sugar level at 90 mg, po bid for 24 weeks (14.5%)
[11] = system: Homo sapiens; assay: Anti-inflammatory activity in COPD patient assessed as change in triglyceride level at 90 mg, po bid for 24 weeks (14.5%)
[12] = system: Homo sapiens; assay: Anti-inflammatory activity in COPD patient assessed as change in LDL-C level at 90 mg, po bid for 24 weeks (11.4%)
[13] = system: Homo sapiens; assay: Anti-inflammatory activity in COPD patient assessed as change in HDL-C level at 90 mg, po bid for 24 weeks (2%)
[14] = system: Homo sapiens; assay: Anti-inflammatory activity in COPD patient assessed as change in uric acid level at 90 mg, po bid for 24 weeks (2.3%)
[15] = system: Homo sapiens; assay: Anti-inflammatory activity in COPD patient assessed as change in gammaGTP level at 90 mg, po bid for 24 weeks (-1.2%)
[16] = system: Homo sapiens; assay: Anti-inflammatory activity in COPD patient assessed as change in creatinine level at 90 mg, po bid for 24 weeks (1.4%)
[17] = system: Homo sapiens; assay: Anti-inflammatory activity in COPD patient assessed as change in C-reactive protein level at 90 mg, po bid for 24 weeks (11.1%)
[18] = system: Homo sapiens; assay: Anti-inflammatory activity in COPD patient assessed as change in SAA-LDL level at 90 mg, po bid for 24 weeks (10.8%)
[19] = system: Homo sapiens; assay: Anti-inflammatory activity in COPD patient assessed as change in AT-LDL level at 90 mg, po bid for 24 weeks (14.8%)
[20] = system: Homo sapiens; assay: Antirheumatoid arthritic activity in patient assessed as disease activity score at 50 mg, po bid for 8 weeks (reference value: 6.72 +/- 0.87)
[21] = system: Homo sapiens; assay: Antirheumatoid arthritic activity in patient assessed as visual analogue scale at 50 mg, po bid for 8 weeks (reference value: 78.25 +/- 11.25)

Molecule `COc1cc(/C=C/C(=O)CC(=O)/C=C/c2ccc(O)c(OC)c2)ccc1O` [CURCUMIN] has an Activity [1] of -1.9%, an Activity [2] of 3.55 and an Activity [3] of 3.58. For the same molecule, the Activity [4] was 27.5, the Activity [5] was 34.29 and the Activity [6] was 0.9%. For the same molecule, the Activity [7] was -1.3%, the Activity [8] was 3.5% and the Activity [9] was 0.4%. It also gave an Activity [10] of 5.8%, an Activity [11] of 9.2% and an Activity [12] of 4.6%. It also gave an Activity [13] of -2.8%, an Activity [14] of 2.4% and an Activity [15] of -5.7%. For the same molecule, the Activity [16] was 2.9%, the Activity [17] was -12.5% and the Activity [18] was -2%. For the same molecule, the Activity [19] was -1.6%.

`O=C([O-])Cc1ccccc1Nc1c(Cl)cccc1Cl.[Na+]` [DICLOFENAC SODIUM] gave an Activity [20] of 3.89 and an Activity [21] of 39.17.

From ChEMBL document CHEMBL3994669, “Curcumin May (Not) Defy Science” (2017)
